Where two headings read alike, the source gives them in different places.
Columns and labels:
[1] = system: T-Rex 293 cell line SC3 cells having increased expression of androgen receptor protein due to exposure to doxycycline; assay: Cellular growth inhibition assay, T-Rex 293 SC3 cells with doxycycline (CellTiter-Glo, 72 hours); format: cell-based; settings: T-Rex 293 SC3 cells with increased androgen receptor expression due to doxycycline (10 ng/mL)
Summary of the method: (§1)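 Doxycycline (10 ng/mL) was either included or omitted to toggle wild-type androgen receptor expression in SC3 cells, a T-Rex 293 clone, grown in stripped-serum, phenol red-free medium. After 72 hours with compound, viable cells were quantified by CellTiter-Glo 2.0.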

[2] = system: T-Rex 293 cell line SC3 cells lacking increased expression of androgen receptor protein; assay: Cellular growth inhibition assay, T-Rex 293 SC3 cells without doxycycline (CellTiter-Glo, 72 hours); format: cell-based; settings: T-Rex 293 cell line SC3 cells not exposed to doxycycline (lacking increased androgen receptor expression)
Summary of the method: as §1

VCaP cells = assay: Cellular growth inhibition assay for VCaP cells (CellTiter-Glo, 72 hours); format: cell-based, human
Experimental: VCaP cells were purchased from American Type Cell Culture (ATCC Cat #CRL2876) and then seeded on poly-D-lysine coated, black clear-bottom 384-well plates at 5000/well in 25 μL Dulbecco's Modified Eagle Medium (DMEM) supplemented with 10% w/w Fetal bovine serum (FBS) and 1% w/w Pen-Strep. Pen-Strep is a commercially available mixture of penicillin G and streptomycin, which is used in mammalian cell culture media to prevent bacterial contamination. Dulbecco's Modified Eagle Medium (DMEM) supplemented with 10% w/w fetal bovine serum (FBS) and 1% w/w Pen-Strep is herein referred to as Treatment Medium. Following seeding of cells in the plates, the plates were spun at 300×g for 30 seconds, then equilibrated to room temperature for 30 minutes, and then deposited in a humidified tissue culture incubator maintained at 37° C. with 5% C0-2.
At 24 hours after seeding of the cells, dilutions of test compound were prepared in DMSO and dissolved in Treatment Medium, to achieve a final DMSO concentration of 0.5% w/w, thereby providing the Test Compound Solution. A 25 μL aliquot of the Test Compound Solution was added to cells in the well plates. An equal volume of a solution containing DMSO and Treatment Medium was used as a negative control. Following treatment of cells with Test Compound Solution or said equal volume of a solution containing DMSO and Treatment Medium, the plates were spun at 300×g for 30 seconds, and then left in an incubator for 72 hours.
At the end of the treatment duration, cell viability was quantified with CellTiter-Glo 2.0 reagent (Promega Cat #G9243). For this purpose, plates were equilibrated to room temperature for 30 minutes, and then 25 μL of CellTiter-Glo 2.0 reagent was added to cells in the plate wells. Plates were then agitated on a shaker for two minutes at 500 rpm and subsequently incubated at room temperature for 10 minutes. Following incubation, the plates were spun at 3000×g for 30 seconds, then sealed with an optical adhesive cover, and luminescence readings were measured with an EnVision Plate Reader.
Data was normalized using zero luminescence for baseline. A four-parameter non-linear regression curve fit was applied to dose-response data in GraphPad Prism data analysis software to determine the half-maximal growth inhibitory concentration (GI50) for each test compound.

| SMILES | GI50 (VCaP cells; Homo sapiens, VCaP, 72 h) [nM] | GI50 (VCaP cells) [nM] | GI50 ([1]; 72 h) [nM] | GI50 ([2]; 72 h) [nM] | GI50 [1] [nM] | GI50 [2] [nM] |
| --- | --- | --- | --- | --- | --- | --- |
| Cc1sc2c(c1C)C(c1ccc(C#CC3CC4(C3)CN(c3ccc(C(=O)N[C@H]5CC[C@H](Oc6ccc(C#N)c(Cl)c6)CC5)nn3)C4)cn1)=N[C@@H](C)c1nnc(C)n1-2 [I-458] | < 500 |  | < 500 | < 500 |  |  |
| Cc1sc2c(c1C)C(c1ccc(C#CC3CC4(CCCN(c5ccc(C(=O)N[C@H]6CC[C@H](Oc7ccc(C#N)c(Cl)c7)CC6)nn5)C4)C3)nc1)=N[C@@H](C)c1nnc(C)n1-2 (stereo partly drawn) [I-459] | < 500 |  | < 500 | < 500 |  |  |
| Cc1sc2c(c1C)C(c1ccc(OC3CC4(CCN(c5ccc(C(=O)N[C@H]6CC[C@H](Oc7ccc(C#N)c(Cl)c7)CC6)nn5)CC4)C3)cn1)=N[C@@H](C)c1nnc(C)n1-2 [I-461] | < 500 |  |  |  | < 500 | > 3000 |
| Cc1sc2c(c1C)C(c1ccc(OC3CC4(CCN(c5ccc(C(=O)N[C@H]6CC[C@H](Oc7ccc(C#N)c(Cl)c7)CC6)nn5)CC4)C3)nc1)=N[C@@H](C)c1nnc(C)n1-2 [I-462] |  | < 500 |  |  | < 500 | > 3000 |
| Cc1sc2c(c1C)C(c1ccc(N3CC(C4CCN(c5ccc(C(=O)N[C@H]6CC[C@H](Oc7ccc(C#N)c(Cl)c7)CC6)nn5)CC4)C3)cn1)=N[C@@H](C)c1nnc(C)n1-2 [I-464] | < 500 |  | < 500 | > 3000 |  |  |
| Cc1sc2c(c1C)C(c1ccc(CCN3[C@H](C)CN(c4ccc(C(=O)N[C@H]5CC[C@H](Oc6ccc(C#N)c(Cl)c6)CC5)nn4)C[C@@H]3C)cc1)=N[C@@H](Cc1ncco1)c1nnc(C)n1-2 [I-466] | < 500 |  | < 500 | < 500 |  |  |
| Cc1sc2c(c1C)C(c1ccc(OC3(C)CC4(CN(c5ccc(C(=O)N[C@H]6CC[C@H](Oc7ccc(C#N)c(Cl)c7)CC6)nn5)C4)C3)cc1)=N[C@@H](Cc1ncco1)c1nnc(C)n1-2 [I-468] | < 500 |  | < 500 | < 500 |  |  |
| Cc1sc2c(c1C)C(c1ccc(OC3CC4(CCCN(c5ccc(C(=O)N[C@H]6CC[C@H](Oc7ccc(C#N)c(Cl)c7)CC6)nn5)C4)C3)cc1)=NCc1nnc(C)n1-2 (stereo partly drawn) [I-473] | < 500 |  | < 500 | > 3000 |  |  |
| Cc1sc2c(c1C)C(c1ccc(CC3CC4(CCCN(c5ccc(C(=O)N[C@H]6CC[C@H](Oc7ccc(C#N)c(Cl)c7)CC6)nn5)C4)C3)cc1)=NCc1nnc(C)n1-2 (stereo partly drawn) [I-474] |  | > 3000 | < 500 |  |  | > 3000 |
| Cc1sc2c(c1C)C(c1ccc(OCC3CC4(CCCN(c5ccc(C(=O)N[C@H]6CC[C@H](Oc7ccc(C#N)c(Cl)c7)CC6)nn5)C4)C3)cc1)=NCc1nnc(C)n1-2 (stereo partly drawn) [I-475] |  | < 500 | < 500 |  |  | > 3000 |
| Cc1sc2c(c1C)C(c1ccc(N3CCC4(CCCN(c5ccc(C(=O)N[C@H]6CC[C@H](Oc7ccc(C#N)c(Cl)c7)CC6)nn5)C4)CC3)nc1)=NCc1nnc(C)n1-2 [I-476] | < 500 |  | < 500 | > 3000 |  |  |
| Cc1sc2c(c1C)C(c1ccc(N3CCC4(CC3)CCN(c3ccc(C(=O)N[C@H]5CC[C@H](Oc6ccc(C#N)c(Cl)c6)CC5)nn3)C4)nc1)=NC1(CC1)c1nnc(C)n1-2 [I-477] | 1500 to 3000 |  | < 500 | 500 to 1500 |  |  |
| Cc1sc2c(c1C)C(c1ccc(OC3CC4(C3)CC3(CCN(c5ccc(C(=O)N[C@H]6CC[C@H](Oc7ccc(C#N)c(Cl)c7)CC6)nn5)CC3)C4)nc1)=NCc1nnc(C)n1-2 [I-479] | < 500 |  | < 500 | > 3000 |  |  |
| Cc1sc2c(c1C)C(c1ccc(N3CCC(CN4CCN(c5ccc(C(=O)N[C@H]6CC[C@H](Oc7ccc(C#N)c(Cl)c7)CC6)nn5)CC4)CC3)cc1)=NC1(CC1)c1nnc(C)n1-2 [I-480] | < 500 |  | < 500 | 500 to 1500 |  |  |
| Cc1sc2c(c1C)C(c1ccc(OCC3CC4(CCCN(c5ccc(C(=O)N[C@H]6CC[C@H](Oc7ccc(C#N)c(Cl)c7)CC6)nn5)C4)C3)cn1)=N[C@@H](C)c1nnc(C)n1-2 (stereo partly drawn) [I-483] |  | < 500 |  |  | < 500 | < 500 |
| Cc1sc2c(c1C)C(c1ccc(OC3CC4(CCN(c5ccc(C(=O)N[C@H]6CC[C@H](Oc7ccc(C#N)c(Cl)c7)CC6)nn5)CC4)C3)cn1)=N[C@@H](C)c1nnc(C)n1-2 [I-484] |  | < 500 | < 500 |  |  | 500 to 1500 |
| Cc1sc2c(c1C)C(c1ccc(N3CCC4(CC3)CCN(c3ccc(C(=O)N[C@H]5CC[C@H](Oc6ccc(C#N)c(Cl)c6)CC5)nn3)CC4)cc1)=N[C@@H](C)c1nnc(C)n1-2 [I-485] | < 500 |  | < 500 | < 500 |  |  |
| Cc1sc2c(c1C)C(c1ccc(OCC3CC4(CCCN(c5ccc(C(=O)N[C@H]6CC[C@H](Oc7ccc(C#N)c(Cl)c7)CC6)nn5)C4)C3)nc1)=NC1(CC1)c1nnc(C)n1-2 (stereo partly drawn) [I-486] | < 500 |  | < 500 | > 3000 |  |  |

The next lines start with results.

| GI50 (VCaP cells; Homo sapiens, VCaP, 72 h) [nM] | GI50 (VCaP cells) [nM] | SMILES | GI50 ([1]; 72 h) [nM] | GI50 ([2]; 72 h) [nM] | GI50 [1] [nM] | GI50 [2] [nM] |
| --- | --- | --- | --- | --- | --- | --- |
|  | < 500 | Cc1sc2c(c1C)C(c1ccc(C#CC3CC4(CCCN(c5ccc(C(=O)N[C@H]6CC[C@H](Oc7ccc(C#N)c(Cl)c7)CC6)nn5)C4)C3)nc1)=N[C@@H](C)c1nnc(C)n1-2 (stereo partly drawn) [I-460] |  |  | < 500 | 500 to 1500 |
| 500 to 1500 |  | Cc1sc2c(c1C)C(c1ccc(N3CC(C4CCN(c5ccc(C(=O)N[C@H]6CC[C@H](Oc7ccc(C#N)c(Cl)c7)CC6)nn5)CC4)C3)nc1)=N[C@@H](C)c1nnc(C)n1-2 [I-463] | < 500 | 500 to 1500 |  |  |
| < 500 |  | Cc1sc2c(c1C)C(c1ccc(OC3CC4(C3)CC3(CCN(c5ccc(C(=O)N[C@H]6CC[C@H](Oc7ccc(C#N)c(Cl)c7)CC6)nn5)CC3)C4)cn1)=N[C@@H](C)c1nnc(C)n1-2 [I-465] | < 500 | > 3000 |  |  |
| < 500 |  | Cc1sc2c(c1C)C(c1ccc(N3CCC(CCc4ccc(C(=O)N[C@H]5CC[C@H](Oc6ccc(C#N)c(Cl)c6)CC5)nn4)CC3)cc1)=N[C@@H](Cc1ncco1)c1nnc(C)n1-2 [I-467] | < 500 | < 500 |  |  |
| < 500 |  | Cc1sc2c(c1C)C(c1ccc(N3CC4(CC(Cc5ccc(C(=O)N[C@H]6CC[C@H](Oc7ccc(C#N)c(Cl)c7)CC6)nn5)C4)C3)cc1)=N[C@@H](Cc1ncco1)c1nnc(C)n1-2 [I-469] | < 500 | > 3000 |  |  |
|  | 500 to 1500 | Cc1sc2c(c1C)C(c1ccc(OCC3CC4(CCCN(c5ccc(C(=O)N[C@H]6CC[C@H](Oc7ccc(C#N)c(Cl)c7)CC6)nn5)C4)C3)cc1)=NC1(CC1)c1nnc(C)n1-2 (stereo partly drawn) [I-470] | < 500 |  |  | 500 to 1500 |
|  | 1500 to 3000 | Cc1sc2c(c1C)C(c1ccc(OCC3CC4(CCCN(c5ccc(C(=O)N[C@H]6CC[C@H](Oc7ccc(C#N)c(Cl)c7)CC6)nn5)C4)C3)cc1)=NC1(CC1)c1nnc(C)n1-2 (stereo partly drawn) [I-471] |  |  | < 500 | > 3000 |
| < 500 |  | Cc1sc2c(c1C)C(c1ccc(N3CC(C4CCN(c5ccc(C(=O)N[C@H]6CC[C@H](Oc7ccc(C#N)c(Cl)c7)CC6)nn5)CC4)C3)nc1)=NCc1nnc(C)n1-2 [I-478] | < 500 | > 3000 |  |  |
|  | < 500 | Cc1sc2c(c1C)C(c1ccc(C#CC3CC4(CCCN(c5ccc(C(=O)N[C@H]6CC[C@H](Oc7ccc(C#N)c(Cl)c7)CC6)nn5)C4)C3)cn1)=NC(C)c1nnc(C)n1-2 (stereo partly drawn) [I-481] | < 500 |  |  | < 500 |
| < 500 |  | Cc1sc2c(c1C)C(c1ccc(OCC3CC4(CCCN(c5ccc(C(=O)N[C@H]6CC[C@H](Oc7ccc(C#N)c(Cl)c7)CC6)nn5)C4)C3)cn1)=N[C@@H](C)c1nnc(C)n1-2 (stereo partly drawn) [I-482] | < 500 | < 500 |  |  |

From patent publication US20260109707A1, “HETEROBIFUNCTIONAL COMPOUNDS AND METHODS OF TREATING DISEASE” (Halda Therapeutics OpCo. Inc., priority 2022, published 2026)
